Test results taken from patent US9695179B2, “Methods and compositions for inhibition of bromodomain-containing proteins” (CONVERGENE LLC, priority 2013, dated 2017).

What was measured:
[1] = target: BRD4-BD1-BD2 (Homo sapiens (Human), UniProt O60885); test: AlphaScreening assay, recombinant BRD4-BD1-BD2 and BET Ligand; type: binding; settings: 2.5 nM BRD4-BD1-BD2, BET Ligand
Experimental: Assays were performed by AlphaScreening technology using a recombinant BRD4-BD1-BD2 and BET Ligand. The AlphaScreening signal from the assay was correlated with the amount of BET Ligand binding to the bromodomain. The compounds were diluted in 50% DMSO and 1 μl of the dilution was added to a 10 μl reaction so that the final concentration of DMSO is 5% in all of reactions. All reactions were conducted at room temperature. The 9 μl reaction mixture in BRD Assay Buffer contains 2.5 nM BRD4-BD1-BD2 and the indicated amount of the inhibitor, and the reaction mixture were incubated for 30 min followed by additional 30 min incubation after the addition of 1 μl of BET Ligand (Table 2.3.1). For the negative control (blank), 1 μl of the assay buffer was added instead of the BET Ligand. After the 30 min incubation with the BET Ligand, 20 μl of BRD Detection buffer containing 10 μg/ml Glutathione acceptor beads and 10 μg/ml Streptavidin Donor beads was added and the final 30 μl mixture was incubated for 50 min in a dark room.
AlphaScreening signal was measured using EnSpire Alpha 2390 Multilabel reader (Perkin Elmer). Binding experiments were performed in duplicate at each concentration. The AlphaScreening data were analyzed using the computer software, Graphpad Prism. In the absence of the compound, the AlphaScreening signal (At) in each data set was defined as 100% activity. In the absence of the BET Ligand, the AlphaScreening signal (Ab) in each data set was defined as 0% activity. The percent activity in the presence of each compound was calculated according to the following equation: % activity=[(A−Ab)/(At−Ab)]×100, where A=the AlphaScreening signal in the presence of the compound, Ab=the AlphaScreening signal in the absence of the BET Ligand, and At=the AlphaScreening signal in the absence of the compound. The percent inhibition was calculated for certain compounds according to the following equation: % inhibition=100−% activity.

[2] = target: human BRD4 protein (Homo sapiens (Human), UniProt O60885); test: AlphaScreen assay, BRD4 (bromodomain 1 and 2) with histone H4 peptide; type: binding; settings: for IC50: 25 nM BRD4, histone H4 peptide, 8 concentrations (10 nM-10 μM), read-out: BRD4-BD1-BD2 IC50; for BRD4-BD1-BD2 % Inhibition: test compounds assayed at 10 μM or 31.6 μM for screening
Experimental: The interactions between test compounds and BRD4 protein containing both bromodomain 1 and bromodomain 2 were measured with human BRD4 protein with N-terminal His tag (BPS Bioscience, San Diego, Calif.) using AlphaScreen® assay at room temperature. A 9 μl reaction mixture in BRD Assay Buffer (BPS Bioscience) containing 25 nM BRD4 and test compounds at various concentrations were incubated for 30 minutes followed by additional 30-minute incubation with 1 μl of 20 μM histone H4 peptide (residue 1-21) in the presence of 5% DMSO. Test compounds (see Table 4) were assayed at 10 μM or 31.6 μM for screening purpose, while 8 different concentrations (10 nM-10 μM) were used for IC50 measurements. After the incubation, 20 μl of BRD Detection Buffer (BPS Bioscience) containing 10 μg/ml Glutathione Acceptor beads and 10 μg/ml Streptavidin Donor beads (PerkinElmer, Waltham, Mass.) was added and the mixture was incubated for 50 minutes in darkroom. Binding measurements were taken in duplicate at each concentration using EnSpire® Alpha Multimode Plate Reader Model 2390 (PerkinElmer). The AlphaScreen data were analyzed using Graphpad Prism (La Jolla, Calif.). In the absence of the compound, the AlphaScreen signal (At) in each data set was defined as 100% activity. In the absence of the histone H4 peptide ligand, the AlphaScreen signal (Ab) in each data set was defined as 0% activity. The percent activity in the presence of each compound was calculated according to the following equation: % activity=[(A−Ab)/(At−Ab)]×100, where A=the AlphaScreen signal in the presence of compound; Ab=the AlphaScreen signal in the absence of the histone peptide ligand; and At=the AlphaScreen signal in the absence of the compound. The percent inhibition was calculated according to the following equation: % inhibition=100−% activity.

[3] = system: MV4-11 acute myeloid leukemia cells; test: In vitro cell viability (AlamarBlue), MV4-11; type: cell-based; settings: Homo sapiens, MV4-11 cells, 72-hour incubation, read-out: In Vitro Cell Viability (IC50) MV4-11 Cells (AML)
Experimental: MV4-11 acute myeloid leukemia cells (American Type Culture Collection, Manassas, Va.) were added to 96-well clear bottom assay plates containing RPMI-1640 medium supplemented with 10% fetal bovine serum (FBS) at approximately 30,000 cells/well and incubated for 24 hours at 37° C. with 5% CO2 and 95% humidity. Control wells containing no cells were included to measure background fluorescence signal. Test compounds were dissolved at […] and diluted two-fold in DMSO to produce a working stock of compound solutions. Aliquots of the working stock solutions were subsequently diluted 100-fold in basal RPMI-1640 medium which was then further diluted 10-fold to the assay plate containing the cells to provide 10 test concentrations ranging from 0.04 μM-20 μM. Following a 72-hour incubation period, viability of the cells was determined by the AlamarBlue® assay (Life Technologies, Carlsbad, Calif.) following the manufacturer's protocol. Prior to generation of dose response curves, the data were background subtracted using the no cell control values (mean+/−standard deviation) and fluorescence values versus Log10 concentration of test compounds were plotted using GraphPad Prism. The resulting sigmoidal curve was then fit to the graph and IC50 values were calculated using a 4 parameter (4PL) algorithm using the following equation: 4(PL)F(x)=(A−D)/(1+(x/c)^B+D, where A=lower asymptote (baseline response), D=upper asymptote (maximum response), C=drug concentration that provokes a response halfway between A and D, B=slope of the curve. The results for selected compounds are set forth in Table 7.

| SMILES | IC50 [2] | BRD4-BD1-BD2 % Inhibition [2] | further results |
| --- | --- | --- | --- |
| C/C(=C\C(=O)c1c(-c2ccccc2)c2cc(Cl)ccc2[nH]c1=O)c1c(F)cccc1Cl | – | – | inhibition at 10 µM [1]: 50% |
| Cc1noc(C)c1-c1ccc2[nH]c(=O)cc(O)c2c1 | – | – | inhibition at 10 µM [1]: 51% |
| CCN(CC)C(=O)Sc1c(-c2ccccc2)c2cc(OC)c(-c3c(C)noc3C)cc2[nH]c1=O | – | – | inhibition at 10 µM [1]: 65% |
| Cc1noc(C)c1-c1ccc2c(c1)c(-c1ccccc1)cc(=O)n2Cc1ccccc1 | – | – | inhibition at 10 µM [1]: 74% |
| Cc1noc(C)c1-c1ccc2[nH]c(=O)cc(-c3ccccc3)c2c1 | – | – | inhibition at 10 µM [1]: 82% |
| Cc1noc(C)c1-c1ccc2c(-c3ccccc3)cc(=O)[nH]c2c1 | – | – | inhibition at 10 µM [1]: 85% |
| Cc1noc(C)c1-c1ccc2[nH]c(=O)cc(NCc3ccccc3)c2c1 | – | – | inhibition at 10 µM [1]: 99% |
| O=C(/C=C/c1ccccc1)c1c(-c2ccccc2)c2cc(Cl)ccc2[nH]c1=O [Compound 1] | 2430 nM | 87% | IC50 [3]: 110 nM |
| O=C(/C=C/c1cccs1)c1c(-c2ccccc2)c2cc(Cl)ccc2[nH]c1=O [Compound 7, 6-chloro-4-phenyl-3-(3-(thiophen-2-yl)acryloyl)quinolin-2(1H)-one] | – | – | IC50 [3]: 2300 nM |
| CN(C)c1ccc(/C=C/C(=O)c2c(-c3ccccc3)c3cc(Cl)ccc3[nH]c2=O)cc1 [Compound 8, 6-chloro-3-(3-(4-(dimethylamino)phenyl)acryloyl)-4-phenylquinolin-2(1H)-one] | – | – | IC50 [3]: 10300 nM |
| O=C(/C=C/c1ccc2c(c1)OCCO2)c1c(-c2ccccc2)c2cc(Br)ccc2[nH]c1=O [Compound 9, 6-bromo-3-(3-(2,3-dihydrobenzo[b][1,4]dioxin-6-yl)acryloyl)-4-phenylquinolin-2(1H)-one] | – | – | IC50 [3]: 5520 nM |
| O=C(/C=C/c1c(F)cccc1Cl)c1c(-c2ccncc2)c2cc(Cl)ccc2[nH]c1=O [Compound 15, 6-chloro-3-(3-(2-chloro-6-fluorophenyl)acryloyl)-4-(pyridin-4-yl)quinolin-2(1H)-one] | – | – | IC50 [3]: 1180 nM |
| Cc1cncc(F)c1/C=C/C(=O)c1c(-c2cccnc2)c2cc(Cl)ccc2[nH]c1=O [Compound 16, 6-chloro-3-(3-(3-fluoro-5-methylpyridin-4-yl)acryloyl)-4-(pyridin-3-yl)quinolin-2(1H)-one] | – | – | IC50 [3]: 400 nM |
| Cc1nc(-c2c(N3CCCCC3)c3cc(Cl)ccc3[nH]c2=O)co1 [Compound 21] | – | – | IC50 [3]: 8600 nM |
| Cc1nc(-c2c(N3CCCC3)c3cc(Cl)ccc3[nH]c2=O)co1 [Compound 22] | – | – | IC50 [3]: 1800 nM |
| O=C(/C=C/c1ccccc1)c1c(-c2ccccc2)c2cc(Br)ccc2[nH]c1=O [Compound 81] | – | – | IC50 [3]: 3000 nM |
| COc1ccc(Cn2c(=O)c(-c3coc(C)n3)c(OS(=O)(=O)c3ccc(C)cc3)c3cc(Cl)ccc32)cc1 [Compound 83] | 442 nM | 99% | – |
| COc1ccc(Cn2c(=O)c(-c3coc(C)n3)c(OS(=O)(=O)c3ccccc3)c3cc(Cl)ccc32)cc1 [Compound 84] | 372 nM | 98% | – |
| COc1ccc(Cn2c(=O)c(-c3coc(C)n3)c(OS(=O)(=O)c3ccc(F)cc3)c3cc(Cl)ccc32)cc1 [Compound 85] | 876 nM | 99% | – |
| COc1ccc(Cn2c(=O)c(-c3coc(C)n3)c(OS(=O)(=O)c3ccc(Cl)cc3)c3cc(Cl)ccc32)cc1 [Compound 86] | 670 nM | 99% | – |

| SMILES | IC50 [2] | BRD4-BD1-BD2 % Inhibition [2] | further results |
| --- | --- | --- | --- |
| COc1ccc(Cn2c(=O)c(-c3coc(C)n3)c(OS(=O)(=O)c3ccc4ccccc4c3)c3cc(Cl)ccc32)cc1 [Compound 87] | 139 nM | 99% | – |
| COc1ccc(Cn2c(=O)c(-c3coc(C)n3)c(OS(=O)(=O)c3cccc4cccnc34)c3cc(Cl)ccc32)cc1 [Compound 88] | 864 nM | 98% | – |
| COc1ccc(Cn2c(=O)c(-c3coc(C)n3)c(OS(=O)(=O)c3ccc(-c4ccccc4)cc3)c3cc(Cl)ccc32)cc1 [Compound 89] | 586 nM | 99% | – |
| Cc1noc(C)c1-c1ccc2[nH]c(=O)c(C(=O)/C=C/c3ccccc3)c(-c3cccnc3)c2c1 [Compound 90] | 11200 nM | 62% | – |
| C=CCn1c(Sc2c(-c3ccccc3)c3cc(Cl)ccc3[nH]c2=O)nnc1-c1cccs1 [Compound 97] | 5800 nM | 59% | – |
| COc1ccc(-c2cc(=O)[nH]c(Sc3c(-c4ccccc4)c4cc(Cl)ccc4[nH]c3=O)n2)cc1 [Compound 98] | 6700 nM | 64% | – |
| O=c1[nH]c2ccc(Cl)cc2c(-c2ccccc2)c1SC(=S)N1CCOCC1 [Compound 121] | 7300 nM | 68% | – |
| CCN(CC)C(=S)Sc1c(-c2ccccc2)c2cc(Cl)ccc2[nH]c1=O [Compound 122] | 26800 nM | 65% | – |
| O=c1[nH]c2cc(Cl)ccc2c(-c2ccccc2)c1Sc1nc2ccccc2s1 [Compound 124] | 17300 nM | 50% | – |
| CSc1nsc(Sc2c(-c3ccccc3)c3ccc(Cl)cc3[nH]c2=O)n1 [Compound 126] | 23600 nM | 50% | – |
| CCN(CC)CCCNC(=O)C1CCCN(c2c(-c3ccccc3)c3cc(Cl)ccc3[nH]c2=O)C1 (centres unmarked) [Compound 127] | – | – | IC50 [3]: 5450 nM |
| CNC(=S)N1N=C(c2c(-c3ccccc3)c3cc(Cl)ccc3[nH]c2=O)CC1c1ccccc1 (centres unmarked) [Compound 128] | 16300 nM | 64% | – |
| Cc1ccc(-c2nnc(Sc3c(-c4ccccc4)c4cc(Cl)ccc4[nH]c3=O)n2N)cc1 [Compound 132] | 3700 nM | 92% | – |
| COc1ccc(OC)c(NCc2c(OC)ccc3ccccc23)c1 [Compound 143] | – | 99% | – |
| O=c1[nH]c2ccc(Br)cc2c(-c2ccccc2)c1-c1cc(-c2ccccc2)[nH]c(=S)n1 [Compound 144] | 49 nM | >90% | – |
| O=c1[nH]c2ccc(Cl)cc2c(-c2ccccc2)c1-c1cc(-c2ccccc2)[nH]c(=S)n1 [Compound 145] | 1440 nM | 72% | – |
| Cc1noc(C)c1-c1ccc2[nH]c(=O)c(C(=O)/C=C/c3ccccc3)c(-c3cccnc3)c2c1 [drawing 644] | – | – | inhibition at 10 µM [1]: 62% |
| Cc1ccc(-c2nnc(Sc3c(-c4ccccc4)c4cc(Cl)ccc4[nH]c3=O)n2/N=C/c2ccccc2)cc1 [drawing 646] | – | – | inhibition at 10 µM [1]: 70% |
| Cc1ccc(-c2nnc(Sc3c(-c4ccccc4)c4cc(Cl)ccc4[nH]c3=O)n2/N=C/c2ccccc2)cc1 [drawing 647] | – | – | % inhibition at 10 μM [1]: 71% |
